Measured values reported in patent publication US9775844B2, “Heterocyclic compounds and uses thereof” (Infinity Pharmaceuticals, Inc., priority 2014, dated 2017).

Experiments:
PI3K α = PI3K α (Homo sapiens (Human), UniProt P42336); test: PI3-Kinase Promega ADP-Glo Max assay; format: biochemical
PI3K-δ in RAJI cells = PI3K-δ in RAJI cells (Homo sapiens (Human), UniProt O00329); test: RAJI p110 δ assay (PI3K-δ selective cellular assay, phospho-AKT); format: cell-based; conditions: phospho-AKT; read-out: RAJI p110 δ assay IC50
PI3K δ = PI3K δ (Homo sapiens (Human), UniProt O00329); test: PI3-Kinase Promega ADP-Glo Max assay; format: biochemical
Sequence of PI3K δ (O00329 whole entry): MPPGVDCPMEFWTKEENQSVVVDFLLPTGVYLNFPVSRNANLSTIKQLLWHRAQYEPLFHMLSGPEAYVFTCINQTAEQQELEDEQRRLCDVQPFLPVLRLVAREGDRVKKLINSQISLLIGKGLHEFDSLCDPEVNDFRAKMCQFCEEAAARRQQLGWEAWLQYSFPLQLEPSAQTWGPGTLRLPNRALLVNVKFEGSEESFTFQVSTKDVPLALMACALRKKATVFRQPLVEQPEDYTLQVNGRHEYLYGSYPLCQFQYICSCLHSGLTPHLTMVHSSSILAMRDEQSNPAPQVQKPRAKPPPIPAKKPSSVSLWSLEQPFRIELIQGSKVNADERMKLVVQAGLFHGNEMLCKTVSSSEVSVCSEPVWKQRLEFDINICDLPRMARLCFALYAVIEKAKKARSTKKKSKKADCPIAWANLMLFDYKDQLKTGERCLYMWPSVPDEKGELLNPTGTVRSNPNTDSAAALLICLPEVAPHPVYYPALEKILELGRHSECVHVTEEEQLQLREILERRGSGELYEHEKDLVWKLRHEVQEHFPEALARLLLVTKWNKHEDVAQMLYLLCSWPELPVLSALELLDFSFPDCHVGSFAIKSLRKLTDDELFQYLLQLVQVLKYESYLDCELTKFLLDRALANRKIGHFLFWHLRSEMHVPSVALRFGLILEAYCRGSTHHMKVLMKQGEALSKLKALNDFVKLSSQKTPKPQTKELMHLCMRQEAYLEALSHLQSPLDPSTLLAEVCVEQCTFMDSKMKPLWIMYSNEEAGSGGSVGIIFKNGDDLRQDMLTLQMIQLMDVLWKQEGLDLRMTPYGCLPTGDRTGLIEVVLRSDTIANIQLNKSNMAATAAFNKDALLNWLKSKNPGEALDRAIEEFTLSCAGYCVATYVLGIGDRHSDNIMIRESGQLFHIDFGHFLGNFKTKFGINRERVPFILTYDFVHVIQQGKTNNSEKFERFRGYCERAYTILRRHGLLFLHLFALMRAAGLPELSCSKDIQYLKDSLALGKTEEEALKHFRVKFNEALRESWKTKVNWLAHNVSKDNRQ
Sequence of PI3K δ (P27986 whole entry partner): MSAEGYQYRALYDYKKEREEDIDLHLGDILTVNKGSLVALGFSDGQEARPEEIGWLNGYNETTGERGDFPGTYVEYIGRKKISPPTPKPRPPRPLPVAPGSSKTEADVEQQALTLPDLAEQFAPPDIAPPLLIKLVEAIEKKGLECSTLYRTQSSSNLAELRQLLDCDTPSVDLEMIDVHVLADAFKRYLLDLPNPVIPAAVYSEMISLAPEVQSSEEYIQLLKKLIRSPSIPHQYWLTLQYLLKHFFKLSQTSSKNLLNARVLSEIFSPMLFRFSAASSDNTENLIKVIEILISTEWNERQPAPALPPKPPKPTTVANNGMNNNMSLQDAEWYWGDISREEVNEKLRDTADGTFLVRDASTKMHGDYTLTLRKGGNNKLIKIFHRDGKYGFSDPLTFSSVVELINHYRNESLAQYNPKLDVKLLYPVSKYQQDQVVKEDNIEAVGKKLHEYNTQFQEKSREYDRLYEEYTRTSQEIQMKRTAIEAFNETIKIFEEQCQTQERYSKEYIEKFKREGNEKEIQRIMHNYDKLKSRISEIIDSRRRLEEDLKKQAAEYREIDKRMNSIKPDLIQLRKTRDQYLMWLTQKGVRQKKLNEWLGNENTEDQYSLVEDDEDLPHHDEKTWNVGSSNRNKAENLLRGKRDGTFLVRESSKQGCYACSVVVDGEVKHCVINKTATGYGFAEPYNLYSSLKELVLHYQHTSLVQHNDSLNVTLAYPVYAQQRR

PI3K γ = PI3K γ (Homo sapiens (Human), UniProt P48736); test: PI3-Kinase Promega ADP-Glo Max assay; format: biochemical
Sequence of PI3K γ (P48736 whole entry): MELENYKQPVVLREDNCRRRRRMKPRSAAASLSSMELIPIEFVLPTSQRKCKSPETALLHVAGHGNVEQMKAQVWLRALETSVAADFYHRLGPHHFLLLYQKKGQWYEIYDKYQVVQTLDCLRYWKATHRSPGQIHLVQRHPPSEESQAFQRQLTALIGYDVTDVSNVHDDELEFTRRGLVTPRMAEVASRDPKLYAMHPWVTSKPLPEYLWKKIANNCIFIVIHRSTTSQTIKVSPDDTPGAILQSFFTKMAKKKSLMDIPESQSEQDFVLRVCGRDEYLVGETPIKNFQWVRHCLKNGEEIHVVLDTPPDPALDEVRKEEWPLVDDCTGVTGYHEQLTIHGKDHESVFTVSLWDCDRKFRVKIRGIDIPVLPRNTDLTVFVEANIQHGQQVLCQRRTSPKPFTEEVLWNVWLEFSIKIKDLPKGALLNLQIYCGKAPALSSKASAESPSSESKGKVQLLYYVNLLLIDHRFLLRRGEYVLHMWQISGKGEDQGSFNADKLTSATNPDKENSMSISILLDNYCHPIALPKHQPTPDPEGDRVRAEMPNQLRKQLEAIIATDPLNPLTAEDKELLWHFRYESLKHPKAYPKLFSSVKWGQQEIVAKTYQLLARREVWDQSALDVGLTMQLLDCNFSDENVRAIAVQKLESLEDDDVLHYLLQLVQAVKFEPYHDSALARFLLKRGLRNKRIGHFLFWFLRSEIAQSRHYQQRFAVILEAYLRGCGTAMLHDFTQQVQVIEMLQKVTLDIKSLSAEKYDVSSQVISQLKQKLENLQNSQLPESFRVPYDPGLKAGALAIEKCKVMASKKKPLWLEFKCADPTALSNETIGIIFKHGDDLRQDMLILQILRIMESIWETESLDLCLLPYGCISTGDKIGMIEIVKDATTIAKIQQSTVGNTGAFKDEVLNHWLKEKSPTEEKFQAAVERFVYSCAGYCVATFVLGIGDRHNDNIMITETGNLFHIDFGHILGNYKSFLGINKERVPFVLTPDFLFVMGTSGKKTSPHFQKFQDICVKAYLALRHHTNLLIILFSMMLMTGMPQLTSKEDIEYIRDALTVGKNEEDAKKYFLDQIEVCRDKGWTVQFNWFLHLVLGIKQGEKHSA

PI3K β = PI3K β (Homo sapiens (Human), UniProt P42338); test: PI3-Kinase Promega ADP-Glo Max assay; format: biochemical
[1] = biological target: PI3K-γ in RAW264.7 macrophages (Mus musculus (Mouse), UniProt Q9JHG7); test: Raw264.7 p110 γ assay (PI3K-γ selective cellular assay, C5a-stimulated phospho-AKT); format: cell-based; conditions: for IC50: phospho-AKT, read-out: Raw264.7 p110 γ assay IC50
Sequence of PI3K-γ in RAW264.7 macrophages (Q9JHG7 whole entry): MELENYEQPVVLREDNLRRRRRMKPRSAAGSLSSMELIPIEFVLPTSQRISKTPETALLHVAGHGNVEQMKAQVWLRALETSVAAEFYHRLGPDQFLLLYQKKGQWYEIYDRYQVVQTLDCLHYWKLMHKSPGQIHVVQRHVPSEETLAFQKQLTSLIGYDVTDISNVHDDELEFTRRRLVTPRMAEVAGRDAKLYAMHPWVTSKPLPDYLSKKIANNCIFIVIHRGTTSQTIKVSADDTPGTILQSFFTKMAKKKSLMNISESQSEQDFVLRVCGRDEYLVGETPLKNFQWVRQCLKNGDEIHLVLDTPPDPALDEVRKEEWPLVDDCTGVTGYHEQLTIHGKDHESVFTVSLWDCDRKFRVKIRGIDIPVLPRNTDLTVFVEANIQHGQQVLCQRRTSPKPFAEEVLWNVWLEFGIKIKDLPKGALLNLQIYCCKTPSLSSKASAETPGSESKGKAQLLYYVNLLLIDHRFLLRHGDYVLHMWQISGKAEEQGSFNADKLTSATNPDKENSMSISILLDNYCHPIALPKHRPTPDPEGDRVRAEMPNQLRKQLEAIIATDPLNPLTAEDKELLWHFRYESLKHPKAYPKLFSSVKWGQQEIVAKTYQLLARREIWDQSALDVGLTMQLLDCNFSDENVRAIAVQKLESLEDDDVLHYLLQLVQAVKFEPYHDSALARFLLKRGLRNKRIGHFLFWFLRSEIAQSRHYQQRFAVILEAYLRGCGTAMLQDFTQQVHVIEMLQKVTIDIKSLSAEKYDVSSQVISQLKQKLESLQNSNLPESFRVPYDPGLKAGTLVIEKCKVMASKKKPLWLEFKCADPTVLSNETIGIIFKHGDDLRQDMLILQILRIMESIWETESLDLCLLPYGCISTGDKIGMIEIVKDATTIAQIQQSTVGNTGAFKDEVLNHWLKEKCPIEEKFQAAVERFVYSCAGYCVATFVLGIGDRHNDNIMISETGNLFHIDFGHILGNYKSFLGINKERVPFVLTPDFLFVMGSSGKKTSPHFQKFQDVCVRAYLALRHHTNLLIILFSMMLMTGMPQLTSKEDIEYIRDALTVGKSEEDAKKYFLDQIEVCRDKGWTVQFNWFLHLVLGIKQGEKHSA

Sequence of PI3K α (P42336 whole entry): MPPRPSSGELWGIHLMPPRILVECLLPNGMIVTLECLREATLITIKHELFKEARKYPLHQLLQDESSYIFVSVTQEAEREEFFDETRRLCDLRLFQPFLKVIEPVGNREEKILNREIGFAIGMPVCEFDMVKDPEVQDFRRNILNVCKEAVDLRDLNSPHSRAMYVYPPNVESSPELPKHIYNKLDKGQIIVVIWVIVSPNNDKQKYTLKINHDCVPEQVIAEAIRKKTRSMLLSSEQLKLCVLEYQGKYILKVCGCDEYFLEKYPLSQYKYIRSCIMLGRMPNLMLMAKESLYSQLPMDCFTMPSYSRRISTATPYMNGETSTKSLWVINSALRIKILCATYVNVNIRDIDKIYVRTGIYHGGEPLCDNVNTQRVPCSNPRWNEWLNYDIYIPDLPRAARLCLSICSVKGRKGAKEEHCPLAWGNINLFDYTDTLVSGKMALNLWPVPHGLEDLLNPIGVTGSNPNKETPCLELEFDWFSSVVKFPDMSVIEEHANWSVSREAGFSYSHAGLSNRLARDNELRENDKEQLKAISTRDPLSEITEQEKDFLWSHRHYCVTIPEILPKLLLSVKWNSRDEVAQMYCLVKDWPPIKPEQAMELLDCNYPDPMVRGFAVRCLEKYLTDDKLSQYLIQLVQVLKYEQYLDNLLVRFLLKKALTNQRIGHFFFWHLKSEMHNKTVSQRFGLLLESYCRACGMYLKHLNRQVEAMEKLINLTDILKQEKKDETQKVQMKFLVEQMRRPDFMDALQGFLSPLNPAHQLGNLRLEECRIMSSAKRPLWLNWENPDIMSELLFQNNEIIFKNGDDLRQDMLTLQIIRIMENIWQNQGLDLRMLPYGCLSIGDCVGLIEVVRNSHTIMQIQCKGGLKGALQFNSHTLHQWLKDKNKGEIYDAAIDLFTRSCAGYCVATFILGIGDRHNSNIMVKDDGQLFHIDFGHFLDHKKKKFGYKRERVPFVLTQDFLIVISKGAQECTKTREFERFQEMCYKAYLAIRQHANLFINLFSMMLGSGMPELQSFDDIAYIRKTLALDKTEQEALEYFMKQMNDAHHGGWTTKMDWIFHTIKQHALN
Sequence of PI3K α (P27986 whole entry partner): as the sequence (P27986 whole entry partner) above

| IC50 (PI3K α) [µM] | IC50 (PI3K-δ in RAJI cells) [µM] | IC50 (PI3K δ) [µM] | IC50 (PI3K γ) [µM] | PI3K δ/PI3K γ IC50 (selectivity) (PI3K γ) | IC50 (PI3K β) [µM] | RAJIδ/Raw264.7 γ IC50 (selectivity) [1] | IC50 [1] [µM] | SMILES |
| --- | --- | --- | --- | --- | --- | --- | --- | --- |
| 5 to 10 | 0.001 to 0.1 | 1 to 5 | 0.1 to 0.5 | X (X = 10 to <50) | 1 to 5 | W (W = >1 to <10) | 0.001 to 0.05 | C[C@H](NC(=O)c1nccnc1N)c1cc2cccc(C#Cc3cnn(C)c3)c2c(=O)n1-c1ccccc1 [Compound 29] |
| 5 to 10 | 0.1 to 0.5 | 5 to 10 | 0.1 to 0.5 | Y (Y = 50 to <850) | 5 to 10 | Y (Y = 50 to <850) | 0.001 to 0.05 | C[C@H](NC(=O)c1c(N)nn2cccnc12)c1cc2cccc(C#Cc3ccn(C)n3)c2c(=O)n1-c1ccccc1 [Compound 30] |
| 5 to 10 | 0.5 to 1 | 5 to 10 | 0.5 to 1 | X (X = 10 to <50) | 5 to 10 | X (X = 10 to <50) | 0.05 to 0.1 | CCOC(C#Cc1cccc2cc([C@H](C)NC(=O)c3c(N)nn4cccnc34)n(-c3ccccc3)c(=O)c12)OCC [Compound 34] |
| 5 to 10 | 0.5 to 1 | 5 to 10 | 0.1 to 0.5 | Y (Y = 50 to <850) | 5 to 10 | Y (Y = 50 to <850) | 0.001 to 0.05 | Cc1c(C#Cc2cccc3cc([C@H](C)NC(=O)c4c(N)nn5cccnc45)n(-c4ccccc4)c(=O)c23)cnn1C [Compound 35] |
| 5 to 10 | 1 to 10 | 5 to 10 | 1 to 5 | W (W = >1 to <10) | 5 to 10 | Y (Y = 50 to <850) | 0.001 to 0.05 | Cc1nn(C)c(C)c1C#Cc1cccc2cc([C@H](C)NC(=O)c3c(N)nn4cccnc34)n(-c3ccccc3)c(=O)c12 [Compound 37] |
| 5 to 10 | 0.5 to 1 | 5 to 10 | 0.001 to 0.1 | Y (Y = 50 to <850) | 5 to 10 | Y (Y = 50 to <850) | 0.001 to 0.05 | Cc1ncc(C#Cc2cccc3cc([C@H](C)NC(=O)c4c(N)nn5cccnc45)n(-c4ccccc4)c(=O)c23)n1C [Compound 38] |
| 5 to 10 | 1 to 10 | 5 to 10 | 0.1 to 0.5 | X (X = 10 to <50) | 5 to 10 | X (X = 10 to <50) | 0.05 to 0.1 | C[C@H](NC(=O)c1cnn2cccnc12)c1cc2cccc(C#Cc3cnn(C)c3)c2c(=O)n1-c1ccccc1 [Compound 39] |
| 1 to 5 | 0.1 to 0.5 | 5 to 10 | 0.001 to 0.1 | Y (Y = 50 to <850) | 5 to 10 | Y (Y = 50 to <850) | 0.001 to 0.05 | Cc1nc(C#Cc2cccc3cc([C@H](C)NC(=O)c4c(N)nn5cccnc45)n(-c4ccccc4)c(=O)c23)cs1 [Compound 40] |
| 5 to 10 | 0.1 to 0.5 | 5 to 10 | 0.1 to 0.5 | Y (Y = 50 to <850) | 5 to 10 | Y (Y = 50 to <850) | 0.001 to 0.05 | C[C@H](NC(=O)c1c(N)nn2cccnc12)c1cc2cccc(C#Cc3cncs3)c2c(=O)n1-c1ccccc1 [Compound 41] |
| 5 to 10 | 0.1 to 0.5 | 5 to 10 | 0.1 to 0.5 | Y (Y = 50 to <850) | 5 to 10 | X (X = 10 to <50) | 0.001 to 0.05 | C[C@H](NC(=O)c1c(N)nn2cccnc12)c1cc2cccc(C#Cc3cnc[nH]3)c2c(=O)n1-c1ccccc1 [Compound 43] |
| 5 to 10 | 0.001 to 0.1 | 1 to 5 | 0.001 to 0.1 | Y (Y = 50 to <850) | 1 to 5 | W (W = >1 to <10) | 0.001 to 0.05 | C#Cc1cccc2nc([C@H](C)NC(=O)c3c(N)nn4cccnc34)n(-c3ccccc3)c(=O)c12 [Compound 46] |
| 5 to 10 | 0.001 to 0.1 | 1 to 5 | 0.001 to 0.1 | X (X = 10 to <50) | 1 to 5 | V (V = 0.1 to 1) | 0.001 to 0.05 | C#Cc1cccc2nc([C@H](C)NC(=O)c3nccnc3N)n(-c3ccc(F)cc3)c(=O)c12 [Compound 49] |
| 5 to 10 | 0.001 to 0.1 | 1 to 5 | 0.001 to 0.1 | Y (Y = 50 to <850) | 5 to 10 | W (W = >1 to <10) | 0.001 to 0.05 | C#Cc1cccc2nc([C@H](C)NC(=O)c3c(N)nn4cccnc34)n(-c3ccc(F)cc3)c(=O)c12 [Compound 50] |
| 5 to 10 | 0.001 to 0.1 | 1 to 5 | 0.1 to 0.5 | W (W = >1 to <10) | 1 to 5 | W (W = >1 to <10) | 0.001 to 0.05 | CC#Cc1cccc2cc(C(C)NC(=O)c3c(N)nn4cccnc34)c(-c3ccccc3)nc12 (centres unmarked) [Compound 51] |
| 1 to 5 | 0.1 to 0.5 | 1 to 5 | 0.001 to 0.1 | Y (Y = 50 to <850) | 1 to 5 | W (W = >1 to <10) | 0.001 to 0.05 | C[C@H](NC(=O)c1c(N)nn2cccnc12)c1cc2cccc(C#Cc3cscn3)c2c(=O)n1-c1ccccc1 [Compound 54] |
| 1 to 5 | 0.5 to 1 | 5 to 10 | 1 to 5 | W (W = >1 to <10) | 1 to 5 | X (X = 10 to <50) | 0.001 to 0.05 | C[C@H](NC(=O)c1c(N)nn2cccnc12)c1nc2cccc(C#Cc3cnn(C)c3)c2c(=O)n1C [Compound 55] |
| 5 to 10 | 0.1 to 0.5 | 5 to 10 | 0.5 to 1 | W (W = >1 to <10) | 5 to 10 | W (W = >1 to <10) | 0.05 to 0.1 | C[C@H](NC(=O)c1c(N)nn2cccnc12)c1cc2cccc(C#CCN(C)C)c2c(=O)n1-c1ccccc1 [Compound 57] |
| 5 to 10 | 0.5 to 1 | 5 to 10 | 1 to 5 | W (W = >1 to <10) | 5 to 10 | V (V = 0.1 to 1) | 0.1 to 10 | C[C@H](NC(=O)c1c(N)nn2cccnc12)c1cc2cccc(C#CC(F)(F)F)c2c(=O)n1-c1ccccc1 [Compound 58] |
| 5 to 10 | 0.1 to 0.5 | 5 to 10 | 0.1 to 0.5 | X (X = 10 to <50) | 5 to 10 | X (X = 10 to <50) | 0.001 to 0.05 | C[C@H](NC(=O)c1c(N)nn2cccnc12)c1cc2cccc(C#Cc3nccs3)c2c(=O)n1-c1ccccc1 [Compound 59] |

| SMILES | IC50 (PI3K α) [µM] | IC50 (PI3K-δ in RAJI cells) [µM] | IC50 (PI3K δ) [µM] | IC50 (PI3K γ) [µM] | PI3K δ/PI3K γ IC50 (selectivity) (PI3K γ) | IC50 (PI3K β) [µM] | RAJIδ/Raw264.7 γ IC50 (selectivity) [1] | IC50 [1] [µM] |
| --- | --- | --- | --- | --- | --- | --- | --- | --- |
| C[C@H](NC(=O)c1c(N)nn2cccnc12)c1cc2cccc(C#Cc3cc[nH]c(=O)c3)c2c(=O)n1-c1ccccc1 [Compound 31] | 5 to 10 | 0.1 to 0.5 | 5 to 10 | 0.1 to 0.5 | X (X = 10 to <50) | 5 to 10 | W (W = >1 to <10) | 0.05 to 0.1 |
| C[C@H](NC(=O)c1c(N)nn2cccnc12)c1cc2cccc(C#Cc3ccccn3)c2c(=O)n1-c1ccccc1 [Compound 32] | 5 to 10 | 0.5 to 1 | 5 to 10 | 0.1 to 0.5 | Y (Y = 50 to <850) | 5 to 10 | Y (Y = 50 to <850) | 0.001 to 0.05 |
| C[C@H](NC(=O)c1c(N)nn2cccnc12)c1cc2cccc(C#CC=O)c2c(=O)n1-c1ccccc1 [Compound 36] | 1 to 5 | 0.1 to 0.5 | 1 to 5 | 0.001 to 0.1 | X (key: V = 0.1 to 1; W = >1 to <10; X = 10 to <50; Y = 50 to <850) | 0.001 to 0.5 | W (key: V = 0.1 to 1; W = >1 to <10; X = 10 to <50; Y = 50 to <850) | 0.1 to 10 |
| C#Cc1cccc2nc([C@H](C)NC(=O)c3c(N)nn4cccnc34)n(-c3ccc(F)c(F)c3)c(=O)c12 [Compound 45] | 5 to 10 | 0.1 to 0.5 | 5 to 10 | 0.1 to 0.5 | Y (Y = 50 to <850) | 5 to 10 | W (W = >1 to <10) | 0.001 to 0.05 |
| C#Cc1cccc2nc([C@H](C)NC(=O)c3c(N)nn4cccnc34)n(C)c(=O)c12 [Compound 48] | 1 to 5 | 0.001 to 0.1 | 1 to 5 | 0.5 to 1 | W (W = >1 to <10) | 0.5 to 1 | V (V = 0.1 to 1) | 0.001 to 0.05 |
| C[C@H](NC(=O)c1c(N)nn2cccnc12)c1cc2cccc(C#CCN3CCN(C)CC3)c2c(=O)n1-c1ccccc1 [Compound 56] | 5 to 10 | 0.1 to 0.5 | 5 to 10 | 0.1 to 0.5 | X (X = 10 to <50) | 5 to 10 | V (V = 0.1 to 1) | 0.1 to 10 |
